Laboratory results: ChEMBL document CHEMBL5579854, “Targeting Relevant HDACs to Support the Survival of Cone Photoreceptors in Inherited Retinal Diseases: Identification of a Potent Pharmacological Tool with In Vitro and In Vivo Efficacy” (J Med Chem, 2024)
≈ marks a conversion by molar mass, not a printed value. Calls of active or inactive are those of the source. The rule behind the calls is not given here.

What was measured:
[1] = Lipophilicity, logP of compound; type: physicochemical; settings: octanol/water
[2] = Solubility of compound; type: physicochemical
[3] = Stability of compound at pH 7.4 measured after 24 hrs; type: physicochemical; settings: buffer, read-out: Stability
Histone deacetylase 1 [4] = biological target: T1, Histone deacetylase 1 (Homo sapiens, UniProt Q13547); experiment: Inhibition of C-terminal 6xHis-tagged full-length recombinant human HDAC1 (1 to 482 residues) expressed in Sf9 insect cells using a fluorogenic substrate preincubated for 30 mins followed by substrate addition measured after 30 mins by fluorescence based assay
T1 sequence (Q13547 whole entry, the tested form may be a part): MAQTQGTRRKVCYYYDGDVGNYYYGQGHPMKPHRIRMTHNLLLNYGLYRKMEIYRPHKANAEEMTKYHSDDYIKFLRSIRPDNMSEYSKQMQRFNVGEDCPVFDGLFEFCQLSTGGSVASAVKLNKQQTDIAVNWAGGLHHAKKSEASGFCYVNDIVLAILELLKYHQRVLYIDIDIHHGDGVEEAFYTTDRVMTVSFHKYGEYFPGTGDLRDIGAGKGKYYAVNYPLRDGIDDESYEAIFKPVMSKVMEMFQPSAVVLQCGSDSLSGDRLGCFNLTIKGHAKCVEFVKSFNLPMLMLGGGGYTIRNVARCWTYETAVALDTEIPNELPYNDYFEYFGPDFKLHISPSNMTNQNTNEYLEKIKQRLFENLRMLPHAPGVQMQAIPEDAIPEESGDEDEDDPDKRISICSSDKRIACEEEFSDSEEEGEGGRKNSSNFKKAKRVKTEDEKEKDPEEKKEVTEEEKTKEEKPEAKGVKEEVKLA

Histone deacetylase 1 [5] = biological target: T1, Histone deacetylase 1; experiment: Inhibition of C-terminal 6xHis-tagged full-length recombinant human HDAC1 (1 to 482 residues) expressed in Sf9 insect cells using a fluorogenic substrate preincubated for 30 mins followed by substrate addition measured after 30 mins by fluorescence based assay relative to control; settings: time 60.0 min
[6] = biological target: T2, Protein deacetylase HDAC6 (Homo sapiens, UniProt Q9UBN7); experiment: Inhibition of C-terminal FLAG-tagged full-length recombinant human HDAC6 (1 to 1215 residues) expressed in Sf9 insect cells using a fluorogenic substrate preincubated for 30 mins followed by substrate addition measured after 30 mins by fluorescence based assay
T2 sequence (Q9UBN7 whole entry): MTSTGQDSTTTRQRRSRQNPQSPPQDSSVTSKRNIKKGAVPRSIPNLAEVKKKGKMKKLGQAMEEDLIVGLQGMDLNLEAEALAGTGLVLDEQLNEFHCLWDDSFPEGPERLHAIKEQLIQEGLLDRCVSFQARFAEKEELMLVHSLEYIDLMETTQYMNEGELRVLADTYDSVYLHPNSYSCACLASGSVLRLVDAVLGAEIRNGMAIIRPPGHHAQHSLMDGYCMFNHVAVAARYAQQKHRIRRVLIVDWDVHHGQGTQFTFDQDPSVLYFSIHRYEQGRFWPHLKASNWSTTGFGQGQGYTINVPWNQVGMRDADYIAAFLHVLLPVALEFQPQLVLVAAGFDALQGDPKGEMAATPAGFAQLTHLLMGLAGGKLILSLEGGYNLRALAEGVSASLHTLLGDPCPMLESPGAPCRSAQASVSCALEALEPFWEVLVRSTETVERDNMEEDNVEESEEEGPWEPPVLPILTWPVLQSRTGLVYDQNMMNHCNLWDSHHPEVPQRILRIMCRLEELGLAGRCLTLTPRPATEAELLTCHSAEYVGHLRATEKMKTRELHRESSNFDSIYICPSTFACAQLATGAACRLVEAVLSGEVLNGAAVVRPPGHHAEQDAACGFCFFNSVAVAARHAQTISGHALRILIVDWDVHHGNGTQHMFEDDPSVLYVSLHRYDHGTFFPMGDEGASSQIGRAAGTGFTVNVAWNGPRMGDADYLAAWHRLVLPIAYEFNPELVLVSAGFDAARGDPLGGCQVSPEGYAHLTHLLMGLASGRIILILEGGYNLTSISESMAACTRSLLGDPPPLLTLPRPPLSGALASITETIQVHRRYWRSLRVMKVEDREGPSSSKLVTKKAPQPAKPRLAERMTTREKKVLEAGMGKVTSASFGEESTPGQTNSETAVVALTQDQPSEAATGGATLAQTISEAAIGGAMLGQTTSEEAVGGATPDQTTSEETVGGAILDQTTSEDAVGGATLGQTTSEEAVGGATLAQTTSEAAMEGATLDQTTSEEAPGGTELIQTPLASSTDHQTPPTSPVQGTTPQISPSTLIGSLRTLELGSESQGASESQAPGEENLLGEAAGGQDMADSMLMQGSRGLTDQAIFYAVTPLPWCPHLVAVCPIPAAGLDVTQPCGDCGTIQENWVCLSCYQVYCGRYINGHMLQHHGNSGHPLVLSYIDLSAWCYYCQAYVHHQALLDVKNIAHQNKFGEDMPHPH

Histone deacetylase 8 = biological target: T3, Histone deacetylase 8 (Homo sapiens, UniProt Q9BY41); experiment: Inhibition of C-terminal His-tagged full-length recombinant human HDAC8 (1 to 377 residues) expressed in Sf9 insect cells using a fluorogenic substrate preincubated for 30 mins followed by substrate addition measured after 30 mins by fluorescence based assay
T3 sequence (Q9BY41 whole entry): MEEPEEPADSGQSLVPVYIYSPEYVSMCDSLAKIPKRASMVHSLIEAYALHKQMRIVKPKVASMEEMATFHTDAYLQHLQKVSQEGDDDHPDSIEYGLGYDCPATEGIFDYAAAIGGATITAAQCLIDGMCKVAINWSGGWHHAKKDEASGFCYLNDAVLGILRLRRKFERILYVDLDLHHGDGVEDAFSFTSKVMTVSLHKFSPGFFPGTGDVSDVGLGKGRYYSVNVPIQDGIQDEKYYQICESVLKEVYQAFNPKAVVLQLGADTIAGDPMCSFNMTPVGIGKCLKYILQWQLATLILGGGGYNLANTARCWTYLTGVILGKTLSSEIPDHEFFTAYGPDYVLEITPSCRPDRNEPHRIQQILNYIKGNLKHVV

Histone deacetylase 5 [7] = biological target: T4, Histone deacetylase 5 (Homo sapiens, UniProt Q9UQL6); experiment: (§1) Inhibition of C-terminal His-tagged recombinant human HDAC5 catalytic domain (656 to 1122 residues) expressed in baculovirus infected Sf9 insect cells using a fluorogenic substrate preincubated for 30 mins followed by substrate addition measured after 30 mins by fluorescence based assay
T4 sequence (Q9UQL6 whole entry, the tested form may be a part): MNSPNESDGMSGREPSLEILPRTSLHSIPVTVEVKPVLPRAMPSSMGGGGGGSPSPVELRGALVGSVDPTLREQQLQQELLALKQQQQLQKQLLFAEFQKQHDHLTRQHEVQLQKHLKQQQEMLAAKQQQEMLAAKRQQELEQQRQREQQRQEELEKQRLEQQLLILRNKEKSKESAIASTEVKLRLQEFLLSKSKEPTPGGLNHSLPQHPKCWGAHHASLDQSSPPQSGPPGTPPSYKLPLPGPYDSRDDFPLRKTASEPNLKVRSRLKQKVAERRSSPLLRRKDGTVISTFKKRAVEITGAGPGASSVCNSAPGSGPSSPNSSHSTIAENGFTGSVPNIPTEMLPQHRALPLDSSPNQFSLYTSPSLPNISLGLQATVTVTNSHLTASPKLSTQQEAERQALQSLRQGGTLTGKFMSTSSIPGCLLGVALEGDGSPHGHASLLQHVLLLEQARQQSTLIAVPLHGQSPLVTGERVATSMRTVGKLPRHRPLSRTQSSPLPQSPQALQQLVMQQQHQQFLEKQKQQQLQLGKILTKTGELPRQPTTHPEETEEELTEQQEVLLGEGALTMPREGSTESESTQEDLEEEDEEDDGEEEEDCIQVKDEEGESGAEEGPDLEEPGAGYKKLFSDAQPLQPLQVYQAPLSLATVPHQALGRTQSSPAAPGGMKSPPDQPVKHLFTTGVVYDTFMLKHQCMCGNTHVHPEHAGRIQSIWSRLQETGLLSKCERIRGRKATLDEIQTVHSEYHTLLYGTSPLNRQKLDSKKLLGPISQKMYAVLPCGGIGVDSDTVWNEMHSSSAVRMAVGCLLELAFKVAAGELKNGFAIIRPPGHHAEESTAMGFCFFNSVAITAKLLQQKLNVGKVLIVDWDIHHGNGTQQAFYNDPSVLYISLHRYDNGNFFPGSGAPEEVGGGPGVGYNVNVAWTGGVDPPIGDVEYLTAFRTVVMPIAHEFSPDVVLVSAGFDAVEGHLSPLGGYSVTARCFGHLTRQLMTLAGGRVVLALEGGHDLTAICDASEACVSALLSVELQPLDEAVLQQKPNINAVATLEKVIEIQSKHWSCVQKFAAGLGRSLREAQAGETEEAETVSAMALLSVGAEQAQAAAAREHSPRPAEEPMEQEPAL

Histone deacetylase 5 [8] = biological target: T4, Histone deacetylase 5; experiment: as §1, with “assay relative to control” for “assay”; settings: time 60.0 min
[9] = biological target: T5, Histone deacetylase 8 (Homo sapiens) (UniProt Q9BY41); experiment: Inhibition of C-terminal His-tagged full-length recombinant human HDAC8 (1 to 377 residues) expressed in Sf9 insect cells using a fluorogenic substrate preincubated for 30 mins followed by substrate addition measured after 30 mins by fluorescence based assay relative to control; settings: time 60.0 min
T5 sequence (whole entry): T3 sequence (Q9BY41 whole entry)

661W [10] = experiment: Cytoprotective effect against H2O2-induced oxidative stress in mouse 661W cells assessed as increase in acetylated alpha-tubulin level at 10 uM incubated for 24 hrs followed by H2O2 treatment for 3 hrs by immunofluorescence analysis; type: functional, cell-based; settings: time 27.0 hrs
661W [11] = experiment: Effect on acetylated histone H3 level in H2O2-induced oxidative stress in mouse 661W cells at 10 uM incubated for 24 hrs followed by H2O2 treatment for 3 hrs by Western blot analysis; type: functional, cell-based; settings: time 27.0 hrs
661W [12] = experiment: Effect on acetylated alpha-tubulin level in H2O2-induced oxidative stress in mouse 661W cells at 10 uM incubated for 24 hrs followed by H2O2 treatment for 3 hrs by Western blot analysis; type: functional, cell-based; settings: time 27.0 hrs

logP [1] | solubility [2] | remaining at 24 h [3] | Compound | further results
4.2 | 156 µM (≈ 73.6 µg/mL) | 64% | O=C(NO)c1ccc(COC(=O)N2CCC3(CC2)CN(Cc2ccccc2)c2ccccc23)cc1 | 
 |  |  | Cn1c2c(c3ccccc31)CN(C(=O)NCc1ccc(C(=O)NO)cc1)CC2 | IC50 (Histone deacetylase 1 [4]): > 10 µM; inhibition (Histone deacetylase 1 [5]): 41%
2.5 | 223 µM (≈ 97.6 µg/mL) | 74% | CC(C)(C)OC(=O)N1CCC2(CC1)CN(Cc1ccc(C(=O)NO)cc1)c1ccccc12 | 
4.08 | 295 µM (≈ 159 µg/mL) | 92% | CCN(CC)Cc1ccc(Cn2c3c(c4ccccc42)CN(C(=O)NCc2ccc(C(=O)NO)cc2)CC3)cc1 | 
2.1 | 97 µM (≈ 34.1 µg/mL) | 71% | CN1CC2(CCN(Cc3ccc(C(=O)NO)cc3)CC2)c2ccccc21 | 
 |  |  | O=C(NO)c1ccc(CNC(=S)N2CCc3c(c4ccccc4n3Cc3ccccc3)C2)cc1 | IC50 [6]: > 10000 nM
2.04 | 285 µM (≈ 106 µg/mL) | 97% | CC1(C)c2ccccc2N(Cc2ccc(C(=O)NO)cc2)C1c1cccnc1 (stereo not drawn) | IC50 [6]: 40.8 nM; IC50 (Histone deacetylase 1 [4]): 5.42 µM; IC50 (Histone deacetylase 8): 2200 nM; IC50 (Histone deacetylase 5 [7]): > 10 µM; inhibition (Histone deacetylase 5 [8]): 14%
3.99 | 141 µM (≈ 62.1 µg/mL) | 90% | O=C(NO)c1ccc(NC(=O)N2CCc3c(c4ccccc4n3Cc3ccccc3)C2)cc1 | 
1.97 | 200 µM (≈ 67.1 µg/mL) | 94% | Cn1c2c(c3ccccc31)CN(Cc1ccc(C(=O)NO)cc1)CC2 | IC50 (Histone deacetylase 1 [4]): > 10 µM; inhibition (Histone deacetylase 1 [5]): 43%
3.2 | 227 µM (≈ 86.1 µg/mL) | 90% | Cn1c2c(c3ccccc31)CN(C(=O)OCc1ccc(C(=O)NO)cc1)CC2 | IC50 (Histone deacetylase 8): > 10000 nM; inhibition [9]: 38%
2.57 |  |  | CC(/C=C/C(=O)NO)=C\[C@@H](C)C(=O)c1ccc(N(C)C)cc1 [TRICHOSTATIN] | 
2.02 | 231 µM (≈ 77.5 µg/mL) | 75% | CN1CCc2c(c3ccccc3n2Cc2ccc(C(=O)NO)cc2)C1 [TUBASTATIN A] | Activity (661W [10]): Active; Activity (661W [11]): inactive; Activity (661W [12]): inactive
